Source: PubChem BioAssay AID2060887 (Molecular Pharmacology Branch, DTP, NCI, 2025)
Each block holds one compound with its values, some of them ahead of it.

Tested on: 782815-120-R-J1-PDC complex spheroid viability
Test: Anticancer human tumor 782815-120-R-J1-PDC patient-derived colon adenocarcinoma cell line growth inhibition [RAS]
Settings: for IC50: curve of first compound; for viability, T/C: stronger effect = lower value
Outline: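 Tumour cells grown as complex spheroids with HUVEC endothelial cells and mesenchymal stem cells, treated with RAS pathway inhibitor combinations. Each agent spans half-log steps from near clinical Cmax, or 10 microM where Cmax is unknown.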

[1] = second compound 0.0316 µM, first compound 0.00316 µM
[2] = second compound 0.0316 µM, first compound 0.01 µM
[3] = second compound 0.0316 µM, first compound 0.0316 µM
[4] = second compound 0.0316 µM, first compound 0.1 µM
[5] = second compound 0.0316 µM, first compound 0.316 µM
[6] = second compound 0.0316 µM, first compound 1 µM
[7] = second compound 0.1 µM, first compound 0.00316 µM
[8] = second compound 0.1 µM, first compound 0.01 µM
[9] = second compound 0.1 µM, first compound 0.0316 µM
[10] = second compound 0.1 µM, first compound 0.1 µM
[11] = second compound 0.1 µM, first compound 0.316 µM
[12] = second compound 0.1 µM, first compound 1 µM
[13] = second compound 0.316 µM, first compound 0.00316 µM
[14] = second compound 0.316 µM, first compound 0.01 µM
[15] = second compound 0.316 µM, first compound 0.0316 µM
[16] = second compound 0.316 µM, first compound 0.1 µM
[17] = second compound 0.316 µM, first compound 0.316 µM
[18] = second compound 0.316 µM, first compound 1 µM
[19] = second compound 1 µM, first compound 0.00316 µM
[20] = second compound 1 µM, first compound 0.01 µM
[21] = second compound 1 µM, first compound 0.0316 µM
[22] = second compound 1 µM, first compound 0.1 µM
[23] = second compound 1 µM, first compound 0.316 µM
[24] = second compound 1 µM, first compound 1 µM
[25] = second compound 3.16 µM, first compound 0.00316 µM
[26] = second compound 3.16 µM, first compound 0.01 µM
[27] = second compound 3.16 µM, first compound 0.0316 µM
[28] = second compound 3.16 µM, first compound 0.1 µM
[29] = second compound 3.16 µM, first compound 0.316 µM
[30] = second compound 3.16 µM, first compound 1 µM
[31] = second compound 10 µM, first compound 0.00316 µM
[32] = second compound 10 µM, first compound 0.01 µM
[33] = second compound 10 µM, first compound 0.0316 µM
[34] = second compound 10 µM, first compound 0.1 µM
[35] = second compound 10 µM, first compound 0.316 µM
[36] = second compound 10 µM, first compound 1 µM
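Also: spheroids exposed to compounds for 7 days before reading.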
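For viability, T/C in this document: 100% = DMSO vehicle control viability.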

IC50 (second compound 0.0316 µM): > 1000 nM | IC50 (second compound 0.1 µM): > 1000 nM | IC50 (second compound 0.316 µM): > 1000 nM | IC50 (second compound 1 µM): > 1000 nM | IC50 (second compound 3.16 µM): > 1000 nM | IC50 (second compound 10 µM): > 1000 nM
SMILES: C=CC(=O)N1CCN(c2nc(OCC3CCCN3C)nc3c(F)c(-c4nc(N)cc(C)c4C(F)(F)F)c(Cl)cc23)C(C)C1 (stereo not drawn) + C#Cc1c(F)ccc2cc(O)cc(-c3ncc4c(N5CC6CCC(C5)N6)nc(OCC56CCCN5CC(F)C6)nc4c3F)c12
viability, T/C [1]: 98.9% | viability, T/C [2]: 86.9% | viability, T/C [3]: 103% | viability, T/C [4]: 92.5% | viability, T/C [5]: 96.9% | viability, T/C [6]: 97% | viability, T/C [7]: 97.3% | viability, T/C [8]: 93.1% | viability, T/C [9]: 97.5% | viability, T/C [10]: 94% | viability, T/C [11]: 97% | viability, T/C [12]: 101% | viability, T/C [13]: 92.6% | viability, T/C [14]: 94.7% | viability, T/C [15]: 89.2% | viability, T/C [16]: 91.8% | viability, T/C [17]: 98.4% | viability, T/C [18]: 84.4% | viability, T/C [19]: 95.5% | viability, T/C [20]: 94.6% | viability, T/C [21]: 94% | viability, T/C [22]: 99.2% | viability, T/C [23]: 101% | viability, T/C [24]: 98.3% | viability, T/C [25]: 97.3% | viability, T/C [26]: 91.7% | viability, T/C [27]: 95.9% | viability, T/C [28]: 105% | viability, T/C [29]: 101% | viability, T/C [30]: 90.5% | viability, T/C [31]: 106% | viability, T/C [32]: 104% | viability, T/C [33]: 93.6% | viability, T/C [34]: 99.6% | viability, T/C [35]: 104% | viability, T/C [36]: 91.1%

IC50 (second compound 0.0316 µM): < 31.6 nM | IC50 (second compound 0.1 µM): < 31.6 nM | IC50 (second compound 0.316 µM): < 31.6 nM | IC50 (second compound 1 µM): < 31.6 nM | IC50 (second compound 3.16 µM): < 31.6 nM | IC50 (second compound 10 µM): < 31.6 nM
SMILES: CC(=O)OC12COC1CC(O)C1(C)C(=O)C(O)C3=C(C)C(OC(=O)C(O)C(NC(=O)OC(C)(C)C)c4ccccc4)CC(O)(C(OC(=O)c4ccccc4)C21)C3(C)C (stereo not drawn) + C#Cc1c(F)ccc2cc(O)cc(-c3ncc4c(N5CC6CCC(C5)N6)nc(OCC56CCCN5CC(F)C6)nc4c3F)c12
viability, T/C [3]: 34.4% | viability, T/C [4]: 32.9% | viability, T/C [5]: 30.1% | viability, T/C [6]: 24.4% | viability, T/C (second compound 0.0316 µM, first compound 3.16 µM): 30.8% | viability, T/C (second compound 0.0316 µM, first compound 10 µM): 34.9% | viability, T/C [9]: 39.7% | viability, T/C [10]: 34.5% | viability, T/C [11]: 29.2% | viability, T/C [12]: 21.6% | viability, T/C (second compound 0.1 µM, first compound 3.16 µM): 32.2% | viability, T/C (second compound 0.1 µM, first compound 10 µM): 31% | viability, T/C [15]: 38.8% | viability, T/C [16]: 33.4% | viability, T/C [17]: 25.9% | viability, T/C [18]: 28.6% | viability, T/C (second compound 0.316 µM, first compound 3.16 µM): 31.9% | viability, T/C (second compound 0.316 µM, first compound 10 µM): 29.5% | viability, T/C [21]: 36.5% | viability, T/C [22]: 32.3% | viability, T/C [23]: 30.5% | viability, T/C [24]: 27.2% | viability, T/C (second compound 1 µM, first compound 3.16 µM): 33.7% | viability, T/C (second compound 1 µM, first compound 10 µM): 33.4% | viability, T/C [27]: 35.4% | viability, T/C [28]: 34.4% | viability, T/C [29]: 35.5% | viability, T/C [30]: 27.5% | viability, T/C (second compound 3.16 µM, first compound 3.16 µM): 28.3% | viability, T/C (second compound 3.16 µM, first compound 10 µM): 34.2% | viability, T/C [33]: 35.7% | viability, T/C [34]: 29.2% | viability, T/C [35]: 26.8% | viability, T/C [36]: 36% | viability, T/C (second compound 10 µM, first compound 3.16 µM): 29.9% | viability, T/C (second compound 10 µM, first compound 10 µM): 32.8%

IC50 (second compound 0.0316 µM): 4.66 nM | IC50 (second compound 0.1 µM): 4.39 nM | IC50 (second compound 0.316 µM): 4.86 nM | IC50 (second compound 1 µM): 4.76 nM | IC50 (second compound 3.16 µM): 4.2 nM | IC50 (second compound 10 µM): 4.39 nM
SMILES: CCc1c2c(nc3ccc(O)cc13)-c1cc3c(c(=O)n1C2)COC(=O)[C@]3(O)CC + C#Cc1c(F)ccc2cc(O)cc(-c3ncc4c(N5CC6CCC(C5)N6)nc(OCC56CCCN5CC(F)C6)nc4c3F)c12
viability, T/C (second compound 0.0316 µM, first compound 0.000949 µM): 94.9% | viability, T/C (second compound 0.0316 µM, first compound 0.003 µM): 67.9% | viability, T/C (second compound 0.0316 µM, first compound 0.00949 µM): 20.8% | viability, T/C (second compound 0.0316 µM, first compound 0.03 µM): 9.58% | viability, T/C (second compound 0.0316 µM, first compound 0.0949 µM): 4.66% | viability, T/C (second compound 0.0316 µM, first compound 0.3 µM): 1.46% | viability, T/C (second compound 0.1 µM, first compound 0.000949 µM): 98.9% | viability, T/C (second compound 0.1 µM, first compound 0.003 µM): 64% | viability, T/C (second compound 0.1 µM, first compound 0.00949 µM): 21.4% | viability, T/C (second compound 0.1 µM, first compound 0.03 µM): 10.5% | viability, T/C (second compound 0.1 µM, first compound 0.0949 µM): 4.8% | viability, T/C (second compound 0.1 µM, first compound 0.3 µM): 1.59% | viability, T/C (second compound 0.316 µM, first compound 0.000949 µM): 96.9% | viability, T/C (second compound 0.316 µM, first compound 0.003 µM): 69.3% | viability, T/C (second compound 0.316 µM, first compound 0.00949 µM): 22.6% | viability, T/C (second compound 0.316 µM, first compound 0.03 µM): 10.5% | viability, T/C (second compound 0.316 µM, first compound 0.0949 µM): 3.58% | viability, T/C (second compound 0.316 µM, first compound 0.3 µM): 1.52% | viability, T/C (second compound 1 µM, first compound 0.000949 µM): 99.9% | viability, T/C (second compound 1 µM, first compound 0.003 µM): 67.4% | viability, T/C (second compound 1 µM, first compound 0.00949 µM): 23.6% | viability, T/C (second compound 1 µM, first compound 0.03 µM): 9.52% | viability, T/C (second compound 1 µM, first compound 0.0949 µM): 3.42% | viability, T/C (second compound 1 µM, first compound 0.3 µM): 1.25% | viability, T/C (second compound 3.16 µM, first compound 0.000949 µM): 99.3% | viability, T/C (second compound 3.16 µM, first compound 0.003 µM): 61.9% | viability, T/C (second compound 3.16 µM, first compound 0.00949 µM): 21% | viability, T/C (second compound 3.16 µM, first compound 0.03 µM): 8.73% | viability, T/C (second compound 3.16 µM, first compound 0.0949 µM): 3.05% | viability, T/C (second compound 3.16 µM, first compound 0.3 µM): 1.2% | viability, T/C (second compound 10 µM, first compound 0.000949 µM): 102% | viability, T/C (second compound 10 µM, first compound 0.003 µM): 64% | viability, T/C (second compound 10 µM, first compound 0.00949 µM): 21% | viability, T/C (second compound 10 µM, first compound 0.03 µM): 11.2% | viability, T/C (second compound 10 µM, first compound 0.0949 µM): 2.93% | viability, T/C (second compound 10 µM, first compound 0.3 µM): 0.95%

IC50 (second compound 0.0316 µM): 94.2 nM | IC50 (second compound 0.1 µM): 73.9 nM | IC50 (second compound 0.316 µM): 85.2 nM | IC50 (second compound 1 µM): 71.4 nM | IC50 (second compound 3.16 µM): 85.8 nM | IC50 (second compound 10 µM): 62.7 nM
SMILES: Nc1ccn(C2OC(CO)C(O)C2(F)F)c(=O)n1 (stereo not drawn) + C#Cc1c(F)ccc2cc(O)cc(-c3ncc4c(N5CC6CCC(C5)N6)nc(OCC56CCCN5CC(F)C6)nc4c3F)c12
viability, T/C [1]: 103% | viability, T/C [2]: 92.8% | viability, T/C [3]: 64.8% | viability, T/C [4]: 54% | viability, T/C [5]: 31.3% | viability, T/C [6]: 28.6% | viability, T/C [7]: 101% | viability, T/C [8]: 91.1% | viability, T/C [9]: 62.3% | viability, T/C [10]: 47.8% | viability, T/C [11]: 29.6% | viability, T/C [12]: 26.3% | viability, T/C [13]: 97.8% | viability, T/C [14]: 92.2% | viability, T/C [15]: 58.7% | viability, T/C [16]: 50.2% | viability, T/C [17]: 37.1% | viability, T/C [18]: 25.3% | viability, T/C [19]: 97.9% | viability, T/C [20]: 81.9% | viability, T/C [21]: 60.6% | viability, T/C [22]: 43.5% | viability, T/C [23]: 38.1% | viability, T/C [24]: 26.7% | viability, T/C [25]: 96.8% | viability, T/C [26]: 89.7% | viability, T/C [27]: 63.1% | viability, T/C [28]: 49% | viability, T/C [29]: 36.2% | viability, T/C [30]: 28.1% | viability, T/C [31]: 101% | viability, T/C [32]: 95.2% | viability, T/C [33]: 61.9% | viability, T/C [34]: 42% | viability, T/C [35]: 35.6% | viability, T/C [36]: 27.1%
